{"source": "patent US7271198B2", "about": "“Method of treating autoimmune diseases” (Wake Forest University, priority 2000, dated 2007)", "key": {"IL-10 protein": {"test_system": "IL-10 protein", "experiment": "IL-10 protein secretion by MRL/lpr splenocytes", "type": "cell-based, mouse", "conditions": "MRL/lpr splenocytes stimulated by LPS, Con A, or LPS+IFN-γ, 72 hr", "description": "To determine the effect of TSA and SAHA on IL-10 protein secretion, MRL/lpr splenocytes were stimulated with Con A, LPS, or LPS+IFN-γ for 72 hr in the absence or presence of TSA or SAHA. As shown in the FIG. 11D, splenocytes stimulated with Con A, LPS, or LPS+IFN-γ secreted a mean (±SEM) of 31.8±4.5, 32.3±1.9, and 34.8±4.9 pg/ml, respectively, of IL-10 protein."}, "[1]": {"test_system": "acetylated histones H3 and H4 in the TGF-β1 promoter", "experiment": "Chromatin immunoprecipitation (ChIP) assay, TGF-β1 gene promoter", "type": "cell-based, human", "description": "The effect of HDAC inhibition on the acetylation of H3 or H4 associated with the TGF-β1 gene promoter was examined using the chromatin immunoprecipitation (ChIP) assay in an attempt to determine if HDIs induce accumulation of acetylated histones in chromatin associated with the TGF-β1 promoter in SLE PBMCs but not in healthy normal controls. The study undertaken included immunoprecipitating formaldehyde cross-linked, sonicated chromatin fragments from vehicle- and HDI-treated cells using anti-acetyl H3 and H4 antibodies, respectively. The immunoprecipitated DNA released from the bound protein was analyzed by quantitative PCR. A series of primer sets encompassing the TGF-β1 gene from −1.4 kbp to +0.6 kbp relative to the start site of transcription were created (FIG. 6A). Approximately a 12- and 4-fold enhancement of acetylated histones H3 and H4, respectively, in the TGF-β1 promoter in SLE was observed (FIGS. 6B & 6C).\nTo determine whether this effect was selective for the TGF-β1 gene in SLE PBMCs, the level of histone acetylation in the glucose-6-phosphate dehydrogenase (G6PD) gene was also examined. As shown in FIGS. 6E & 6F, there was no change in the levels of acetylated histones H3 and H4 at the G6PD gene in SLE PBMCs."}, "MRL/lpr mice": {"test_system": "MRL/lpr mice", "experiment": "In vivo TSA in 12 wk MRL/lpr mice (0.5 mg/kg sc, 4 weeks)", "set-up": "species or system mouse", "protocol": "TSA was administered to MRL/lpr mice at 12 wks of age coinciding with the time of onset of clinical disease. TSA was given subcutaneously (sc) at a dose of 0.5 mg/kg dissolved in […]; control mice were given the vehicle alone (40 μl DMSO). Proteinuria was assessed as a measure of albumin in mg/mouse/day prior to the initial dose (at 12 wks of age) and after four wks of treatment (at 16 wks of age). […] After four weeks of treatment, nine mice in each group were sacrificed. At necropsy, the weight of the spleens were measured and sera was collected. […] IFN-γ was measured by ellispot assay in splenocytes isolated from vehicle or TSA treated mice.\nTSA was administered to MRL/lpr mice at 12 wks of age at the time of onset of clinical disease. TSA was given subcutaneously (sc) at a dose of 0.5 mg/kg dissolved in 40 μl DMSO; control mice were given the vehicle alone (40 μl DMSO). After four weeks of treatment, nine mice in each group were sacrificed. One-half of one kidney was fixed in 10% formaldehyde/PBS, embedded in paraffin, and stained with hematoxylin and eosin. An examiner blinded to the treatment group quantified disease activity as follows: (a) Glomeruli were graded for hypercellularity (0–4), crescent formation (0–4), and inflammation (0–4). (b) The interstitium was graded for inflammation (0–4). Scores were additive (BALB/c mice historically receive scores of 0–0.5). Half of the second kidney was snap-frozen, embedded in OCT, frozen sections cut and analyzed for C3 deposition by immunofluorescence.\nIn determining whether TSA suppresses autoantibody production anti-dsDNA and anti GBM-auto-antibodies were measured."}, "[2]": {"test_system": "IL-12 p35 and p40 transcripts", "experiment": "IL-12 p35 and p40 transcripts in MRL/lpr splenocytes", "type": "cell-based, mouse", "protocol": "In this study, the question of whether TSA down-regulates transcription of both IL-12 p35 and p40 subunit mRNA was investigated. […] Splenocytes were stimulated with LPS and IFN-γ for 6 or 18 hr. […] When splenocytes were preincubated with TSA or SAHA for 18 hr and then stimulated with LPS and IFN-γ IL-12 p35 and p40 transcripts were undetectable (FIGS. 9B–D)."}, "cell-surface CD154": {"test_system": "cell-surface CD154", "experiment": "Flow cytometry of cell-surface CD154 and CD3-ε on SLE T cells", "type": "cell-based, human", "protocol": "In agreement with previous work (M. Koshy, et al., J. Clin. Invest. 98, 826 (1996); A. Desai-Mehta, et al., J. Clin. Invest. 97, 2063 (1996)), we find that an increased proportion of SLE T cells express cell-surface CD154 compared to normal and disease controls. To determine if TSA-dependent down-regulation of CD154 mRNA reduces surface expression of CD154, SLE T cells were treated for 18 hr with TSA and the proportion of CD154^+ cells quantified by flow cytometry (E. Hagiwara, et al., Arthritis Rheum. 39, 379 (1996)). […] T cells were stained with saturating concentrations of monoclonal FITC-anti-CD3 and PE anti-CD154 antibodies (Caltag Labs, Burlingame, Calif.) for 30 min at 4° C., and the proportion of cells expressing CD3-ε and CD154 was quantified. In sum, these experiments reveal that TSA down-regulates both CD154 mRNA and protein expression, but not GAPDH mRNA or CD3-ε expression, in SLE T cells."}, "[3]": {"conditions": "0.5 mg/kg sc, 4 weeks treatment"}}}
{"smiles": "CC(/C=C/C(=O)NO)=C\\[C@@H](C)C(=O)c1ccc(N(C)C)cc1", "note": "[TSA, Trichostatin A]", "values": [{"measurement": "IL-10 protein secretion", "setting": "IL-10 protein", "value": "no detectable IL-10 secretion"}, {"measurement": "acetylated state of G6PD gene", "setting": "[1]; SLE PBMCs", "value": "does not change"}, {"measurement": "enhancement of acetylated histone H3 in the TGF-β1 promoter", "setting": "[1]; SLE PBMCs, ChIP", "value": "~12", "unit": "fold"}, {"measurement": "enhancement of acetylated histone H4 in the TGF-β1 promoter", "setting": "[1]; SLE PBMCs, ChIP", "value": "~4", "unit": "fold"}, {"measurement": "enhancement of acetylated histones H3 and H4 at the TGF-β1 promoter", "setting": "[1]; normal PBMCs treated with TSA", "value": "essentially no enhancement"}, {"measurement": "proteinuria (albumin)", "setting": "MRL/lpr mice; 0.5 mg/kg sc from 12 wks, after four wks, vs vehicle", "value": "prevented an increase in proteinuria"}, {"measurement": "C3 deposition (kidney immunofluorescence)", "setting": "MRL/lpr mice; [3]", "value": "did not show change"}, {"measurement": "glomerulonephritis and renal score", "setting": "MRL/lpr mice; [3]", "value": "significant reduction"}, {"measurement": "number of IFN-γ secreting cells (ellispot, splenocytes)", "setting": "MRL/lpr mice; 0.5 mg/kg sc, four weeks", "value": "significant decrement"}, {"measurement": "spleen weight", "setting": "MRL/lpr mice; 0.5 mg/kg sc, four weeks, vs vehicle", "value": "significantly decreased in weight"}, {"measurement": "overall health", "setting": "MRL/lpr mice; 0.5 mg/kg sc, vs vehicle", "value": "signs of better overall health"}, {"measurement": "anti-dsDNA and anti GBM auto-antibodies", "setting": "MRL/lpr mice; TSA vs vehicle, 4 weeks treatment", "value": "no significant change"}, {"measurement": "LPS and IFN-γ induced IL-12 p35 and p40 transcripts", "setting": "[2]; splenocytes from 10-wk old MRL/lpr mice preincubated 18 hr, stimulated 6 or 18 hr", "value": "undetectable"}, {"measurement": "TSA concentration that completely suppressed constitutive IL-12 p35 and p40 transcripts", "setting": "[2]; splenocytes from 24-wk MRL/lpr mice", "value": "above 100 ng/ml"}, {"measurement": "new population of CD154+ cells induced by PMA+IO", "setting": "cell-surface CD154; SLE T cells pretreated with TSA 1000 ng/ml 18 hr, PMA+IO 24 hr, P=0.005", "value": "completely inhibited"}, {"measurement": "CD3-ε expression", "setting": "cell-surface CD154; SLE T cells, with or without TSA and PMA+IO", "value": "remained stable"}, {"measurement": "reduction of cell-surface CD154+ cells", "setting": "cell-surface CD154; non-activated SLE T cells, TSA, over 24 hr, vs untreated", "value": "did not effect any significant reduction"}]}
